Measured values as given in US11452758B2, “Antimicrobial peptide derived from LL37 peptide and uses thereof” (INDUSTRY-ACADEMIC COOPERATION FOUNDATION, CHOSUN UNIVERSITY, priority 2018, dated 2022).
Where two headings read alike, the source gives them in different places. Where a SMILES comes first, the peptide text is derived from it.

Tests used:
Assay type in all cases: cell-based
[1] = system: normal human keratinocyte cell line (HaCaT); assay: Cytotoxicity in normal cell line (MTT); conditions: HaCaT; peptide 32 μM; 24 hours; MTT
Summary of the method: (§1)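 HaCaT and Hs27 cells (1×10^4/well, DMEM with 10% FBS) were seeded 24 h, then exposed 24 h to peptides at 0.5–32 μM. Viability was measured by MTT reduction (1 h), with DMSO-dissolved formazan read at 570 nm.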

[2] = system: normal human fibroblast cell line (Hs27); assay: Cytotoxicity in normal cell line (MTT); conditions: Hs27; peptide 32 μM; 24 hours; MTT
Summary of the method: as §1

[3] = system: Acinetobacter baumannii KCTC 2508; conditions: A. baumannii KCTC 2508
Protocol: To determine the antimicrobial activity of peptides prepared by the method of above Example 1 in the presence of different ions in living body, minimal inhibitory concentration (MIC), i.e., lowest concentration of a peptide not allowing bacterial cell division, was measured.
Specifically, among the bacterial strains that are described in the above Table 2, Acinetobacter baumannii KCTC 2508 cells were cultured to a mid-log phase in MHB (Mueller Hinton Broth) medium, and, after diluting LL37-2 or LL37-4 peptide synthesized in the above Example 1 in a solution containing different kind of ions (sodium chloride, calcium chloride, magnesium chloride, and iron chloride) at different concentration, it was added to the plate in an amount of 50 μl per plate. After that, the cultured cells were diluted to cell concentration of 2×10^5 cells/50 μl, inoculated to a microtiter plate (NUNC, USA), and then cultured again for 18 hours at 37° C. By using a microtiter plate reader (Merck Elisa reader, Germany), absorbance at wavelength of 600 nm was measured and MIC value was determined for each strain. As a control, the MIC values of LL37, LL37-2 and LL37-4 for Acinetobacter baumannii KCTC 2508, which are shown in the above Table 3, were used.

mouse erythrocytes = assay: Hemolytic activity; conditions: 1 hour at 37° C.
Protocol: To compare the cytotoxicity among the peptides that are produced by the method of Example 1, erythrocyte hemolytic activity of the synthesized peptide was measured.
Specifically, erythrocytes of a mouse (Balb/c, 6 week old, female) were diluted in PBS (pH 7.0) to have concentration of 8%, and then subjected to a treatment with LL37, LL37-1, LL37-2, LL37-3 or LL37-4, to have concentration of 1.56, 3.13, 6.25, 12.5, 25.0, 50.0 or 100.0 μM/well for each followed by a reaction for 1 hour at 37° C. After that, the amount of hemoglobin contained in a supernatant collected by centrifuge at 1,000×g was determined by measuring the absorbance at a wavelength of 414 nm. As a control group to be used as a reference for cell disruption level, the supernatant collected by a treatment with 1% Triton X-100 (Sigma, USA) and a reaction for 1 hour at 37° C. was used to measure the absorbance. By setting the resulting absorbance value at 100% of the hemolytic activity, hemolysis of each peptide was calculated using the following formula. Erythrocyte disrupting ability (%)=(Absorbance A−Absorbance B)/(Absorbance C−Absorbance B)×100 (in the above formula, Absorbance A indicates the absorbance of a reaction solution treated with each peptide, in which the absorbance is measured at a wavelength of 414 nm; Absorbance B indicates the absorbance of a reaction solution treated with PBS, in which the absorbance is measured at a wavelength of 414 nm; and Absorbance C indicates the absorbance of a reaction solution treated with 1% Triton X-100, in which the absorbance is measured at a wavelength of 414 nm).

CC[C@H](C)[C@H](NC(=O)[C@H](CCCNC(=N)N)NC(=O)[C@H](CCC(N)=O)NC(=O)[C@@H](NC(=O)[C@@H](NC(=O)[C@H](CCCNC(=N)N)NC(=O)[C@H](CCCCN)NC(=O)[C@H](Cc1ccccc1)NC(=O)[C@H](CCCCN)NC(=O)[C@@H](N)CCCCN)[C@@H](C)CC)C(C)C)C(=O)N[C@@H](CCCCN)C(=O)N[C@@H](CC(=O)O)C(=O)N[C@@H](Cc1ccccc1)C(=O)N[C@@H](CC(C)C)C(=O)N[C@@H](CCCNC(=N)N)C(=O)N[C@@H](CC(N)=O)C(N)=O [LL37-2, KKFKRIVQRIKDFLRN-NH2] (H-KKFKRIVQRIKDFLRN-NH2)
Cell survival ability [1]: 107%
Cell survival ability [2]: 97%
Minimal inhibitory concentration of antimicrobial peptide ([3]; Calcium chloride 1.25 mM): 4 µM
Minimal inhibitory concentration of antimicrobial peptide ([3]; Calcium chloride 2.5 mM): 4 µM
Minimal inhibitory concentration of antimicrobial peptide ([3]; Calcium chloride 5 mM): 8 µM
Minimal inhibitory concentration of antimicrobial peptide ([3]; Iron chloride 2 mM): 4 µM
Minimal inhibitory concentration of antimicrobial peptide ([3]; Iron chloride 4 mM): 4 µM
Minimal inhibitory concentration of antimicrobial peptide ([3]; Iron chloride 8 mM): 4 µM
Minimal inhibitory concentration of antimicrobial peptide ([3]; Magnesium chloride 0.5 mM): 4 µM
Minimal inhibitory concentration of antimicrobial peptide ([3]; Magnesium chloride 1 mM): 4 µM
Minimal inhibitory concentration of antimicrobial peptide ([3]; Magnesium chloride 2 mM): 4 µM
Minimal inhibitory concentration of antimicrobial peptide ([3]; Sodium chloride 50 mM): 8 µM
Minimal inhibitory concentration of antimicrobial peptide ([3]; Sodium chloride 100 mM): 16 µM
Minimal inhibitory concentration of antimicrobial peptide ([3]; Sodium chloride 150 mM): 32 µM
Erythrocyte disrupting ability (mouse erythrocytes; peptide 1.56 μM): 0%
Erythrocyte disrupting ability (mouse erythrocytes; peptide 3.13 μM): 0%
Erythrocyte disrupting ability (mouse erythrocytes; peptide 6.25 μM): 1%
Erythrocyte disrupting ability (mouse erythrocytes; peptide 12.5 μM): 1%
Erythrocyte disrupting ability (mouse erythrocytes; peptide 25 μM): 1%
Erythrocyte disrupting ability (mouse erythrocytes; peptide 50 μM): 1%
